Experiment [1] concerns the target T1, Indoleamine 2,3-dioxygenase 2 (Homo sapiens) (UniProt Q6ZQW0).
T1 sequence (whole entry): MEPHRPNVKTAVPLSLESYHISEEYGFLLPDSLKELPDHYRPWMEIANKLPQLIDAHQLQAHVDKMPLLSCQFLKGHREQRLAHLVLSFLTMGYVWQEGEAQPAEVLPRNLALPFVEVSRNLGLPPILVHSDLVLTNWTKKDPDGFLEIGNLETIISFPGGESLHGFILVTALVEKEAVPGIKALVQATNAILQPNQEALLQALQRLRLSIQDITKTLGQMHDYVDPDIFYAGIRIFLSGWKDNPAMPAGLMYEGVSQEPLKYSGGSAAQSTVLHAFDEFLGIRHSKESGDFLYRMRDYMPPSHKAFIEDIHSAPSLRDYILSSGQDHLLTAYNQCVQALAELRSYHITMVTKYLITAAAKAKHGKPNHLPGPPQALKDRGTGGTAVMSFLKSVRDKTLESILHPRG
Kind of experiment: Inhibition of human IDO2 at 10 uM using L-tryptophan as substrate incubated for 30 min assessed as reduction in conversion of N-formyl kynurenine to kynurenine relative to control.

For experiment [2], the target named is T2, Indoleamine 2,3-dioxygenase 2 (Homo sapiens, UniProt Q6ZQW0).
T2 sequence (Q6ZQW0 whole entry): T1 sequence (whole entry)
Kind of experiment: Inhibition of human IDO2 using L-tryptophan as substrate assessed as reduction in conversion of N-formyl kynurenine to kynurenine.

The target of experiment [3] is T3, Indoleamine 2,3-dioxygenase 1 (Homo sapiens, UniProt P14902). The experiment can be described thus: Inhibition of IDO1 in human U87MG cells in presence of L-tryptophan incubated for 24 h. It counts as cell-based.
T3 sequence (P14902 whole entry): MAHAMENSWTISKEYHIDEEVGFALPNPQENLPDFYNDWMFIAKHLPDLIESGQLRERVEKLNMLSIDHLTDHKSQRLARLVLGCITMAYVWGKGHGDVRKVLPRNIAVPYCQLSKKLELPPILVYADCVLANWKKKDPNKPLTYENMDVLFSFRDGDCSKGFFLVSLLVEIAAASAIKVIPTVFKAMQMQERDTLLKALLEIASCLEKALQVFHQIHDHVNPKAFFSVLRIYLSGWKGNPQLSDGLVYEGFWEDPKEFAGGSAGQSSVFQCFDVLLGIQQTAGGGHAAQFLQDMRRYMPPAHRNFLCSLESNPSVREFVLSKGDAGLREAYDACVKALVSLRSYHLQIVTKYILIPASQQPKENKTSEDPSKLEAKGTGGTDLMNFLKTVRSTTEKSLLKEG
In experiment [4] the target is T3, Indoleamine 2,3-dioxygenase 1. Kind of experiment: Inhibition of IDO1 (unknown origin) using L-tryptophan as substrate incubated for 30 min assessed as reduction in conversion of N-formyl kynurenine to kynurenine by dixon plot analysis.

Each structure is given as a SMILES string.

`O=C1c2c(Cl)cccc2-n2c1nc1ccccc1c2=O`: in experiment [1], the inhibition was in the range of 18 to 47%.
On the same count and under the same terms, with `O=C1c2ccccc2-n2c1nc1ccccc1c2=O` the figure was 18 to 47%.
Turning to `O=C1c2cc([N+](=O)[O-])ccc2-n2c1nc1ccccc1c2=O`, the IC50 in experiment [2] was 0.00187 mM. Also, the inhibition in experiment [1] came out at 63%.
Consider `Cc1ccc2c(c1)C(=O)c1nc3ccccc3c(=O)n1-2`, for which the inhibition in experiment [1] lay within 18 to 47%. Besides, the IC50 in experiment [3] was greater than 3.9 mM.
As for `O=C1c2cc(Br)ccc2-n2c1nc1ccccc1c2=O`, in experiment [1], the inhibition lay in the range of 18 to 47%.
Consider `Cn1cc(C[C@H](N)C(=O)O)c2ccccc21`, for which, in experiment [1], the inhibition turned out to be 8%.
Still for that read-out and setting: as for `O=C1c2cc(F)ccc2-n2c1nc1ccc(F)cc1c2=O`, the figure is 18 to 47%; as for `Cn1cc(C[C@@H](N)C(=O)O)c2ccccc21`, 8%.
Consider `O=C1c2ccccc2-n2c1nc1ccc(F)cc1c2=O`, for which, in experiment [4], the inhibitory constant (Ki) was greater than 3.9 mM. The inhibition in experiment [1] was in the range of 18 to 47%. Besides, in experiment [3], the IC50 was greater than 3.9 mM.
For the molecule `O=C1c2cc(F)ccc2-n2c1nc1ccccc1c2=O`, the inhibition in experiment [1] is 18 to 47%.
On the same count and under the same terms, as for `O=C1c2ccc(Cl)cc2-n2c1nc1ccccc1c2=O`, the figure is 18 to 47%.

These data come from ChEMBL document CHEMBL4482322, “Uses of tryptanthrin and derivative thereof in preparing hldo2 inhibitor” (2017).
